Laboratory results taken from US12629348B2, “Method and composition for treating osteoarthritis” (Vireo Systems, Inc., priority 2013, dated 2026).

Test system: cultured canine chondrocytes
Test: TNFα release in cultured canine chondrocytes challenged with IL1b
Format: cell-based
Details: IL1b challenge; FIG. 4
Description: The study involved the use of cultured canine chondrocytes (i.e., cells within the joint that are activated during OA). The canine chondrocytes were subjected to an inflammatory challenge in the form of cytokine Interleukin 1 beta (“IL1b”). The canine chondrocytes were then treated with various anti-inflammatory compounds including Alpha-GEE; glucosamine; a TNFα receptor antagonist; and a NSAID (Rimadyl). Alpha-GEE was administered in concentrations ranging from 10 μM to 1000 μM. The resulting effects of the various treatments on both PGE2 release and TNFα release were examined.
A similar time dependent decrease in TNFα release was also observed in chondrocytes treated with Alpha-GEE, as shown in FIG. 4.

Row | Compound | effect on TNFα release in canine chondrocytes
1 | CC(C(=O)O)c1ccc2c(c1)[nH]c1ccc(Cl)cc12 (centres unmarked) [Rimadyl] | significant increase
2 | N[C@H]1C(O)O[C@H](CO)[C@@H](O)[C@@H]1O (some centres unmarked) [glucosamine] | no significant effect
